Measurements taken from US7195756B2, “Control of arthropod vectors of parasitic diseases” (Centers for Disease Control and Prevention, priority 2000, dated 2007).

Assays:
[1] = test system: I. spinipalpis; test: Field trial Larimer County, Colorado: ticks on Neotoma mexicana, treated bait boxes; assay type: in vivo, Ixodes spinipalpis; set-up: I. spinipalpis control level: concentration or dose not given beside the values; conditions: for I. spinipalpis control level: tick burdens treated vs untreated rats, FRONT LINE TOP SPOT
Protocol: A field trial testing fipronil (FRONT LINE TOP SPOT®) on native rodent-associated ticks was conducted in a Rocky Mountains foothills habitat in Larimer County, Colo. Treated and untreated plots consisted of 35 rat dens within 5 hectares each. A mark-release-capture study with Neotoma mexicana began in April, and captured rats were anesthetized and ticks removed, identified and quantified. The principal tick on N. mexicana is I. spinipalpis, a nidicolous, competent vector in enzootic transmission cycles in Colorado, California and Oregon. […] Fipronil was passively applied to rats as they entered and exited modified commercially available bait boxes as described in Example 1. Treated bait boxes were set out in May, left in place, and retreated and rebaited at four-week intervals through August. Collections were made at 1, 4, 8, 12 and 16 weeks post-application. N. mexicana collected in the untreated control area numbered 92 with 150 total captures resulting in 1273 fleas and ticks. In the fipronil area, 110 individual rats were collected with a total of 179 captures resulting in 416 fleas and ticks.

[2] = test system: Ixodes scapularis; test: Field trial Mason's Island: tick burdens on white-footed mice, fipronil-treated bait boxes; assay type: in vivo; conditions: for mean number of larvae/mouse: treated area
Protocol: (§1) A field trial was conducted from April to September, 1999 on Mason's Island, Mystic, Conn. […] Four sites situated in undeveloped natural areas were used as untreated controls.
(§2) Modified Protecta Jr. (Bell Laboratories, Madison, Wis.) mouse bait boxes (FIG. 2) were used in this study. The modifications were as follows: a cotton yarn wick was stapled to the underside of the lid just in front of the feeding area entry; two adsorbent nylon strips were affixed to the outer edges of the food block trays. Two Detex monitoring blocks (Bell Laboratories, Madison, Wis.) were placed in each box, 2–3 ml of fipronil topical formulation was applied to the wick and adsorbent strips with a squirt bottle, and the lid was closed and locked with a set screw prior to placement on properties. A 0.43% w/w formulation of fipronil was used in May and June and this was replaced by a 1% w/w formulation from July through September.
(§3) White-footed mice were live-trapped using 3″×3″×10″ Sherman mouse traps (Sherman Trap Co., Tallahassee, Fla.). Pre-treatment trapping was conducted in April and May and post-treatment trapping from June through September to determine: 1) distribution of mice on individual properties, 2) tick burdens on animals, and 3) spirochete infection rates in mice between treated and untreated plots. Each mouse was anesthetized, ectoparasites were removed, ear tissue was collected for spirochete culture, mice were then bled, weighed, measured, ear-tagged and released at the point of capture. In July and August cloth drags were used to collect host-seeking larval ticks for comparison with results of host-associated tick data.
(§4) Based upon pre-treatment mouse distribution and abundance data, a total of 125 bait boxes were set out on 13 residences. Boxes were spaced approximately 30 feet apart along the interface with maintained landscaping and wood lot or scrub brush. The number of boxes/property ranged from 4 to 20, depending on property size and presence of suitable mouse habitat. Initial treatment with fipronil began on May 17 and at approximate 4-week intervals each box was re-baited with 2 food blocks and the wick and strips were replenished with 2–3 ml of fipronil formulation. A record of relative use by white-footed mice was kept for each box during the trial.

[3] = test system: Borrelia burgdorferi; test: Field trial Mason's Island: spirochete infection of white-footed mice (ear biopsy culture); assay type: in vivo
Protocol: as §1, §2, §3, §4
3) Impact of fipronil on the natural transmission cycle of B. burgdorferi—Individual captured mice were tested for infection with B. burgdorferi by culture of ear biopsy tissue in BSK H growth media.

[4] = test system: nymphal Ixodes scapularis; test: Fipronil bioassay: treated laboratory mice challenged with nymphal ticks; assay type: in vivo; conditions: for % of nymphs fed to repletion: 20 μl single topical application
Protocol: Fipronil Bioassay: To better determine the most efficacious concentration of fipronil active ingredient for use in the bait box method of tick control, a trial was conducted using treated and untreated laboratory mice challenged with nymphal Ixodes scapularis. Individual groups of 5 mice were treated with 20 microliters (one drop) of 1%, 0.75%, 0.5% and 0.43% of fipronil topical oil formulation micropipetted between the scapulae. Five mice were used as untreated controls. Individual mice were challenged with 10 nymphs each on days 14, 28 and 42. During tick challenge mice were held over water in a triple barrier/cage system. Ticks that fed to repletion were collected from the water and used as a measurement for acaricidal activity.
4) Fipronil bioassay—A total of 25 mice and 750 nymphal I. scapularis were used in this laboratory trial. The volume of 20 microliters (one average-sized drop) was considered the smallest amount of liquid acaricide that a mouse would apply to itself on a single visit to a bait box.

[5] = recaptured adult white-footed mice following fipronil treatment, chi-square p = 0.01

`N#Cc1nn(-c2c(Cl)cc(C(F)(F)F)cc2Cl)c(N)c1[S+]([O-])C(F)(F)F` (stereo not drawn) [Fipronil, 5-amino-3-cyano-1-(2,6-dichloro-4-trifluoromethylphenyl)-4-trifluoromethylsulfinylpyrazole] was tested, and the “fleas and ticks collected” value ([1]; fipronil area, 110 rats, 179 captures (untreated: 1273 from 150 captures)) was 416, the “I. spinipalpis control level” value ([1]; week 1 post-application) was 25% and the “I. spinipalpis control level” value ([1]; week 4 post-application) was 90%. For the same compound, the “I. spinipalpis control level” value ([1]; week 8 post-application) was 75%, the “I. spinipalpis control level” value ([1]; week 12 post-application) was 97% and the “I. spinipalpis control level” value ([1]; week 16 post-application) was 93%. For the same compound, the “treated properties with host-seeking larvae present (cloth drags)” value ([2]; July and August, seven of 13 treated properties) was 54%, the “larvae on treated mice” value ([2]; course of the study, except one engorged larva in August and one larva in September) was “not present” and the “mean number of larvae/mouse” value ([2]; August (untreated 9.1)) was 0.03. For the same compound, the “mean number of larvae/mouse” value ([2]; July (untreated 4.5)) was 0, the “live nymphs on mice after fipronil treatment” value ([2]; white-footed mice, fipronil-treated area, post-treatment June-September, bait boxes 0.43% then 1% w/w) was “not found” and the “% of spirochete-infected mice” value ([3]; Peromyscus leucopus, fipronil area, 164 mice, April-September 1999 (untreated 69%)) was 38%. For the same compound, the “% of properties with infected mice” value ([3]; fipronil area, 12/13 properties (untreated 100%)) was 92%, the “young mice that became infected” value ([3]; post-treatment period, 26 young mice (body mass <17 g), fipronil area (untreated 30% of 26)) was “none” and the “No. of mice + at first capture, remained +” value ([3]; recaptured adult white-footed mice following fipronil treatment) was 18. The “No. of mice − at first capture, became +” value [3, 5] was 4, the “No. of mice − at first capture, remained −” value [3, 5] was 14 and the “% of nymphs fed to repletion” value ([4]; 0.43% (85 μg/mouse), 14 days) was 0%. For the same compound, the “% of nymphs fed to repletion” value ([4]; 0.43% (85 μg/mouse), 28 days) was 16%, the “% of nymphs fed to repletion” value ([4]; 0.43% (85 μg/mouse), 42 days) was 30% and the “% of nymphs fed to repletion” value ([4]; 0.50% (100 μg/mouse), 14 days) was 0%. For the same compound, the “% of nymphs fed to repletion” value ([4]; 0.50% (100 μg/mouse), 28 days) was 8%, the “% of nymphs fed to repletion” value ([4]; 0.50% (100 μg/mouse), 42 days) was 24% and the “% of nymphs fed to repletion” value ([4]; 1.00% (200 μg/mouse), 14 days) was 0%. For the same compound, the “% of nymphs fed to repletion” value ([4]; 1.00% (200 μg/mouse), 28 days) was 0%, the “% of nymphs fed to repletion” value ([4]; 1.00% (200 μg/mouse), 42 days) was 2% and the “optimum concentration of fipronil to kill ticks on mice for 30 days after a single exposure” value ([4]; 20 microliters (=150 micrograms)) was 0.75%.
